Data published in patent publication EP0364819A2, “LHRH analogs” (The Administrators of The Tulane Educational Fund, priority 1988, dated 1990).

Tests used:
[1] = tested on: membrane receptors of human prostate cancer; assay: Receptor binding to human prostate cancer membranes with 125I-labeled [D-Trp6]LHRH; conditions: first receptor class (high affinity binding sites)
Experimental: (§1) (c)Affinity for peptides to human prostate and breast cancer cell membranes.
(§2) This is determined by using labelled LHRH and [D-Trp⁶]LHRH. The assay is carried out similarly to that described by T. Kadar et al., Proc. Natl. Acad. Sci. USA, 85, 890-894 (1988).

[2] = tested on: membrane receptors of Dunning tumor; assay: Receptor binding to Dunning tumor membranes with 125I-labeled [D-Trp6]LHRH; conditions: first receptor class (high affinity binding sites); rat Dunning tumor
Experimental: as §2

[3] = target: T1, membrane receptors of rat pituitary (Rattus norvegicus, UniProt P30969); assay: Receptor binding to rat pituitary membranes with 125I-labeled [D-Trp6]LHRH; conditions: Table 2, antagonistic analogues; high affinity binding sites; pituitary of male rats; ¹²⁵l-labeled [D-Trp⁶]LHRH
T1 construct: membrane receptors of rat pituitary; from tissue; host or cells: rat pituitary membranes
T1 sequence (P30969 1-327): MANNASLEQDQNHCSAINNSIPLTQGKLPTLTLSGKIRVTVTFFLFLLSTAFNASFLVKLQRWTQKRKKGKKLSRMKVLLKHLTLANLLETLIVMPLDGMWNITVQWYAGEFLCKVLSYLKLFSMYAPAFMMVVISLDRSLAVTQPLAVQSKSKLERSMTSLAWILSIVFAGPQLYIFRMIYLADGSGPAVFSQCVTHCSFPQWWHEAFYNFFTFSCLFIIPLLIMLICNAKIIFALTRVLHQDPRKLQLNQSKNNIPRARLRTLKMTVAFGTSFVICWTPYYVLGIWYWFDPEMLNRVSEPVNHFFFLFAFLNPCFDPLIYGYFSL
Experimental: as §2
(§3) Table 2 presents the antiovulatory activity of the claimed compounds having LHRH-inhibiting properties. The inhibitory action was determined in vivo, in 4-day cycling rats as described [A. Corbin and C. W. Beattie, Endocr. Res. Commun., 2, 1-23 (1975)]. Affinities of the claimed compounds to membrane receptors of rat pituitary and human breast cancer cells are also given in Tables 1 and 2 as determined by using [[…],D-Trp⁶]LHRH.

[4] = target: T2, membrane receptors of human breast cancer cells (Homo sapiens, UniProt P30968); assay: Receptor binding to human breast cancer cell membranes with 125I-labeled [D-Trp6]LHRH; conditions: Table 2, antagonistic analogues, high affinity binding sites, ¹²⁵l-labeled [D-Trp⁶]LHRH
T2 construct: human prostate and breast cancer cell membranes; endogenous in cells
T2 sequence (P30968 1-328): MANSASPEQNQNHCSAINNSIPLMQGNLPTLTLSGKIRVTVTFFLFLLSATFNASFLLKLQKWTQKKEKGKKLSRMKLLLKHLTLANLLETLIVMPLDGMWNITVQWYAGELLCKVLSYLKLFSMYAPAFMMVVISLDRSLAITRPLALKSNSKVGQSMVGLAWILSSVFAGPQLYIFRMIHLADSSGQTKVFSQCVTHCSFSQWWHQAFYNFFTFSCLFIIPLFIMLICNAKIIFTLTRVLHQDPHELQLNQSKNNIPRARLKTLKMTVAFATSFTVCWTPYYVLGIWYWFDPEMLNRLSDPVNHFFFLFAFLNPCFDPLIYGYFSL
Experimental: as §1, §2, §3

4-day cycling rats = assay: In vivo antiovulatory activity in 4-day cycling rats; conditions: 4-day cyclic rats
Experimental: This activity of the peptides is determined in 4-day-cycling rats as described [A. Corbin and C. W.Beattie, Endocr. Res. Commun. 2, 1-23(1975)].
as §3

[5] = prior art analogues with Chlorambucil as cytotoxic moiety; cited from earlier work

Compound | Human prostate cancer* Ka1 [1] [nM⁻¹] | Dunning tumor* Ka1 [2] [nM⁻¹] | Binding affinity, Ka1, for membrane receptors of pituitary [3] [nM-¹] | Binding affinity, Ka1, for membrane receptors of cancer cells [4] [nM-¹] | Hormonal activity* %Blockade of ovulation (4-day cycling rats; Dose 3 µg/rat) [%] | Hormonal activity* %Blockade of ovulation (4-day cycling rats; Dose 10 µg/rat) [%] | activities (LHRH agonist or antagonist) [5]
CC(C)C[C@H](NC(=O)[C@@H](Cc1c[nH]c2ccccc12)NC(=O)[C@H](Cc1ccc(O)cc1)NC(=O)[C@H](CO)NC(=O)[C@H](Cc1c[nH]c2ccccc12)NC(=O)[C@H](Cc1c[nH]cn1)NC(=O)[C@@H]1CCC(=O)N1)C(=O)N[C@@H](CCCNC(=N)N)C(=O)N1CCC[C@H]1C(=O)NCC(N)=O [[D-Trp⁶]-LHRH, reference compound] | 0.04 | 1.87 | – | – | – | – | –
Ac-D-Nal(2)-D-Phe(4Cl)-D-Pal(3)-Ser-Arg-D-Lys[(Cu⁺⁺)(POL)₂(DL-A₂pr)]-Leu-Arg-Pro-D-Ala-NH₂ [XXIV] | – | – | 5.483 | 2.628 | 50 | – | –
Ac-D-Nal(2)-D-Phe(4Cl)-D-Pal(3)-Ser-Arg-D-Lys[(Cu⁺⁺)(POLP)₂(DL-A₂pr)]-Leu-Arg-Pro-D-Ala-NH₂ [Example XX] | – | – | 5.250 | 2.436 | 80 | – | –
Ac-D-Nal(2)-D-Phe(4Cl)-D-Pal(3)-Ser-Arg-D-Mel-Leu-Arg-Pro-D-Ala-NH₂ [Example II] | 0.7 | 1.68 | 7.190 | 3.967 | – | – | –
Ac-D-Nal(2)-D-Phe(4Cl)-D-Trp-Ser-Arg-D-Lys[(Cu⁺⁺) (POL)₂(DL-A₂pr)]-Leu-Arg-Pro-D-Ala-NH₂ [Example XXIII] | – | – | 7.622 | 3.408 | – | 40 | –
Ac-D-Nal(2)-D-Phe(4Cl)-D-Trp-Ser-Arg-D-Lys[(Cu⁺⁺)(POLP)₂(DL-A₂pr)]-Leu-Arg-Pro-D-Ala-NH₂ [Example XXII] | – | – | 2.901 | 1.337 | – | 60 | –
Ac-D-Nal(2)-D-Phe(4Cl)-D-Trp-Ser-Arg-D-Lys[(Cu⁺⁺)(SAL)₂(DL-A₂pr)]-Leu-Arg-Pro-D-Ala-NH₂ [XII] | – | – | 9.183 | 4.951 | 20 | – | –
Ac-D-Nal(2)-D-Phe(4Cl)-D-Trp-Ser-Arg-D-Lys[(Ni⁺⁺)(SAL)₂(DL-A₂pr)]-Leu-Arg-Pro-D-Ala-NH₂ [Example XV] | – | – | 8.676 | 4.418 | 20 | – | –
[Chlorambucil-D-Leu²,D-Leu³,D-Ala⁶]LHRH (2-10) | – | – | – | – | – | – | moderate activities
[Chlorambucil-D-Phe¹,D-Phe²,D-Trp³ʼ⁶]LHRH | – | – | – | – | – | – | practically inactive
[D-Lys(Chlorambucil)⁶] LHRH | – | – | – | – | – | – | moderate activities
